Measured values taken from ChEMBL document CHEMBL1157445, “Design, synthesis and evaluation of isaindigotone derivatives as acetylcholinesterase and butyrylcholinesterase inhibitors” (Bioorg Med Chem Lett, 2008).

Legend:
Cholinesterase [1] = target: Cholinesterase (Equus caballus, UniProt P81908)
Description: Inhibition of equine serum BuchE

Acetylcholinesterase [2] = target: Acetylcholinesterase (Electrophorus electricus, UniProt O42275)
Description: Inhibition of electric eel AchE

Cholinesterase [3] = target: Cholinesterase (Homo sapiens, UniProt P06276); experiment: Inhibition of BuchE
Sequence of Cholinesterase (Homo sapiens, UniProt P06276) (P06276 whole entry): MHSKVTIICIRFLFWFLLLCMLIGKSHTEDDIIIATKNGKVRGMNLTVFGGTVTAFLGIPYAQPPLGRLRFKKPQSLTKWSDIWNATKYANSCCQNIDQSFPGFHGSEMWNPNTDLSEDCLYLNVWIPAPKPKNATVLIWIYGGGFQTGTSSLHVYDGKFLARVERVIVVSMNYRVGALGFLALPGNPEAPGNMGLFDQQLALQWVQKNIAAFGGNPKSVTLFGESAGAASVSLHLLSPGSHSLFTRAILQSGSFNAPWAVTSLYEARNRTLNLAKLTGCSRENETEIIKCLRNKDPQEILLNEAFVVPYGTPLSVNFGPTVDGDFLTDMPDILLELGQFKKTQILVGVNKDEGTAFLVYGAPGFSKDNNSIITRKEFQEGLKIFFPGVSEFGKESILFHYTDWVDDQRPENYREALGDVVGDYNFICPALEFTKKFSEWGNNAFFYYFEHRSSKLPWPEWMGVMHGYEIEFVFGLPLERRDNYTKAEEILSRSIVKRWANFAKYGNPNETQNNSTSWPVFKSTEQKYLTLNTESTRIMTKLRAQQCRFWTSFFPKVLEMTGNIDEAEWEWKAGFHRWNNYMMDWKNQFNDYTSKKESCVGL

Acetylcholinesterase [4] = target: Acetylcholinesterase (Homo sapiens, UniProt P22303); experiment: Inhibition of AchE
Sequence of Acetylcholinesterase (Homo sapiens, UniProt P22303) (P22303 whole entry): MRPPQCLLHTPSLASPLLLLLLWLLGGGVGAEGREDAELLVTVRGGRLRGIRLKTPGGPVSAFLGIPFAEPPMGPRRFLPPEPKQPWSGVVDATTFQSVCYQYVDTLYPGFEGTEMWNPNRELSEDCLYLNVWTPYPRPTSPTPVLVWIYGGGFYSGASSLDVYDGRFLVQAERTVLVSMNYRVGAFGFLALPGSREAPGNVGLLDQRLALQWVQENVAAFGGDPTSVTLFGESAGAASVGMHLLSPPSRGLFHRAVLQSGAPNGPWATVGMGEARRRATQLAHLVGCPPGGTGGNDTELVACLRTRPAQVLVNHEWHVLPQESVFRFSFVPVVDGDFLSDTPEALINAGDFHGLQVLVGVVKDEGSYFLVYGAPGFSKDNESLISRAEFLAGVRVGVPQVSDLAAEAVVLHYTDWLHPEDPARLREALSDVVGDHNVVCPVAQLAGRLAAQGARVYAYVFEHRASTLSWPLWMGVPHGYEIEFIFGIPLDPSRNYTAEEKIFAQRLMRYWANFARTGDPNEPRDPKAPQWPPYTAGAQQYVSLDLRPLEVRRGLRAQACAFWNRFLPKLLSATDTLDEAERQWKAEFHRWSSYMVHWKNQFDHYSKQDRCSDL

Sequence of Acetylcholinesterase (Electrophorus electricus, UniProt O42275) (O42275 whole entry): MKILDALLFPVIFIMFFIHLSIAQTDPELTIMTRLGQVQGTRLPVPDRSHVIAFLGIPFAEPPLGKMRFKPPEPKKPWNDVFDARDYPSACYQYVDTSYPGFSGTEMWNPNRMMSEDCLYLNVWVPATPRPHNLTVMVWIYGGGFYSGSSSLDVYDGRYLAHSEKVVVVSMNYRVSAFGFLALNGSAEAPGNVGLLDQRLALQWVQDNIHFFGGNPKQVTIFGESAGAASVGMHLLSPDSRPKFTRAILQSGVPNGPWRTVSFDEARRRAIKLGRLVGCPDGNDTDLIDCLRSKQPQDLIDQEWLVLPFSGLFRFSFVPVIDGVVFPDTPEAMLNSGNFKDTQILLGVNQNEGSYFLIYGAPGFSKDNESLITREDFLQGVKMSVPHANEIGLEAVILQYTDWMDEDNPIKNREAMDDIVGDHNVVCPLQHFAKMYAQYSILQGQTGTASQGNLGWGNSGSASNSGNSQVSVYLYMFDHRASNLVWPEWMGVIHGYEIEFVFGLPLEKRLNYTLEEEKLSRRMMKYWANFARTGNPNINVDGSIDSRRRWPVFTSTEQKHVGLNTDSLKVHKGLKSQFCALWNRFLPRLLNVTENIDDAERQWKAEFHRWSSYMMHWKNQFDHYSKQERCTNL
Sequence of Cholinesterase (Equus caballus, UniProt P81908) (P81908 whole entry): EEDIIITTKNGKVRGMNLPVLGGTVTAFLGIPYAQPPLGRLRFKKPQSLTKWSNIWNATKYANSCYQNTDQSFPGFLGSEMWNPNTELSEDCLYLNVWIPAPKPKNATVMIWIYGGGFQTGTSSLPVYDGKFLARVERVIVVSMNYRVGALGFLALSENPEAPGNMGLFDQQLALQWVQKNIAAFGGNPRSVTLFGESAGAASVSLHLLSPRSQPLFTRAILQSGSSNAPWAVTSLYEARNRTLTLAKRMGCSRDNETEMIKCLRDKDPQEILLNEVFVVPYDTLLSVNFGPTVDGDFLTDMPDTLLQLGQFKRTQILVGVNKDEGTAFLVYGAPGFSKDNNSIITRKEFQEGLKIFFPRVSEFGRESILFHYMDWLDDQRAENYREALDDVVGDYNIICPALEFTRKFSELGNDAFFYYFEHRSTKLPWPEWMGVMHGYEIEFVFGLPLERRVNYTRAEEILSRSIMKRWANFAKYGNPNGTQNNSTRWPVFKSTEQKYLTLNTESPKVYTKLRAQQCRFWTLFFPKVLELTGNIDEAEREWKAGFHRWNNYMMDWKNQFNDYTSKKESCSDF

Structure (SMILES)	IC50 (Cholinesterase [1]) [µM]	IC50 (Acetylcholinesterase [2]) [µM]	IC50 (Cholinesterase [3]) [µM]	IC50 (Acetylcholinesterase [4]) [µM]
CCN(CC)CCOc1ccc(CC2CCn3c2nc2ccccc2c3=O)cc1 (stereo not drawn)	> 20	1.62	–	–
O=c1c2ccccc2nc2n1CC/C2=C\c1ccc(OCCN2CCCCC2)cc1	2.99	0.16	–	–
CCN(CC)CCCOc1ccc(CC2CCn3c2nc2ccccc2c3=O)cc1 (stereo not drawn)	> 20	8.95	–	–
O=c1c2ccccc2nc2n1CCC2Cc1ccc(OCCN2CCCCC2)cc1 (stereo not drawn)	8.29	0.75	–	–
O=c1c2ccccc2nc2n1CC/C2=C\c1ccc(OCCCN2CCCCC2)cc1	1.66	0.72	–	–
O=c1c2ccccc2nc2n1CCC2Cc1ccc(OCCCN2CCCCC2)cc1 (stereo not drawn)	5.72	5.58	–	–
CCN(CC)CCCOc1ccc(/C=C2\CCn3c2nc2ccccc2c3=O)cc1	7.12	2.41	–	–
CCN(CC)CCOc1ccc(/C=C2\CCn3c2nc2ccccc2c3=O)cc1	12.7	0.48	–	–
O=c1c2ccccc2nc2n1CCC2 [DEOXYVASICINONE]	–	–	25.1	82.5
